Patent US7462595B2, “Methods for treating cancer-related fatigue” (priority 2004, dated 2008)

Assays:
[1] = test system: patients with severe CRF (breast cancer or prostate cancer); assay: double-blind, placebo-controlled crossover study of intravenous TRH infusions in idiopathic cancer-related fatigue; assay type: in vivo, human
Procedure: Patient Selection. Patients with a diagnosis of cancer, in this study, breast cancer; or prostate cancer, are screened for CRF using a brief fatigue inventory (BFI) in an oncology clinic setting. The BFI is a simple 9-item self-administered scale and requires about 5-10 minutes to complete. Patients experiencing a severe level of fatigue (BFI≧7) are identified based on this screening. These patients then undergo additional screening with a comprehensive interview and laboratory assessments (hemoglobin, hematocrit, thyroid stimulating hormone concentration, and electrolytes) to identify and exclude patients with medically reversible or other treatable causes of fatigue (viz. anemia, hypothyroidism, electrolyte abnormalities, significant pain dominating the CRF presentation). […]
The patients selected undergo a comprehensive assessment to investigate different aspects of fatigue. […] Patients are evaluated for two major psychiatric disorders frequently co-occurring with CRF, depressive disorders and anxiety disorders. […]
The study utilizes a double-blind, placebo-controlled crossover design. […], patients are evaluated in the General Clinical Research Unit (GCRC) of the John Dempsey Hospital and receive intravenous infusions of TRH (0.5 mg for the first active drug trial, 1.5 mg for the second active drug trial) or saline in random order following an ABBA crossover design. […]

[2] = test system: patients with spinocerebellar degeneration (SCD); details: cited from earlier work
[3] = test system: patients with severe CRF (breast cancer or prostate cancer); assay: randomized, double-blind, placebo-controlled study of taltirelin in idiopathic cancer-related fatigue; assay type: in vivo, human; details: 10 mg vs placebo; after 6 weeks of treatment
Procedure: Patient Selection. Patients with a diagnosis of cancer, in this study, breast cancer, or prostate cancer, are screened for CRF using a brief fatigue inventory (BFI) in an oncology clinic setting. The BFI is a simple 9-item self-administered scale and requires about 5-10 minutes to complete. Patients experiencing a severe level of fatigue (BFI≧7) are identified based on this screening. […]
Both groups undergo a comprehensive assessment to investigate different aspects of fatigue. […] Patients are also evaluated for two major psychiatric disorders frequently co-occurring with CRF, depressive disorders and anxiety disorders. […]
In the intervention phase of the study, patients receive study medication or placebo based on their group assignments. […] Patients are assessed for their overall status using the clinical global impressions severity of illness scale (CGI-S) at randomization, at week 4 and at the end of the intervention phase. They are also assessed for any global improvement using clinical global impressions improvement scale (CGI-I) at week 4 and at the end of intervention phase. […]

NC(=O)[C@@H]1CCCN1C(=O)[C@H](Cc1cnc[nH]1)NC(=O)[C@@H]1CCC(=O)N1 [TRH, L-pyroglutamyl-L-histidyl-L-prolineamide]
improving cancer related fatigue, change from baseline in mean fatigue scores assessed using the BFI and MFI ([1]; TRH 0.5 mg or 1.5 mg infusion vs placebo (saline), each comparison point during 4 week treatment intervention phase): superior to placebo | improving quality of life, change from baseline in mean quality of life scores assessed using SF-36 ([1]; TRH 0.5 mg or 1.5 mg vs placebo, of treatment): superior to placebo

CN1C(=O)C[C@@H](C(=O)N[C@@H](Cc2c[nH]cn2)C(=O)N2CCC[C@H]2C(N)=O)NC1=O [taltirelin]
safety record and side effect profile ([2]; Phase III clinical trials and post-marketing surveillance in Japan): excellent safety record | efficacy in the treatment of spinocerebellar degeneration (SCD) ([2]; SCD patients): some efficacy

taltirelin
improving cancer related fatigue, change from baseline in mean fatigue scores assessed using BFI and MFI [3]: superior to placebo | improving quality of life, change from baseline in mean quality of life scores assessed using SF-36 [3]: superior to placebo
